Assay results from ChEMBL document CHEMBL5233269, “Anticancer potential of spirocompounds in medicinal chemistry: A pentennial expedition” (Eur J Med Chem, 2021).
Values after ≈ are worked out from the molar mass of the structure shown.

What was measured:
[1] = Antiproliferative activity against human Panel (10 carcinoma cell lines) cells; format: functional, cell-based
[2] = system: HCT-116; test: Antiproliferative activity against human HCT-116 cells assessed as cell growth inhibition; format: functional, cell-based
[3] = system: MGC-803; test: Antiproliferative activity against human MGC-803 cells assessed as cell growth inhibition; format: functional, cell-based
[4] = system: Bel-7402; test: Antiproliferative activity against human Bel-7402 cells; format: functional, cell-based
[5] = system: A549; test: Antiproliferative activity against human A549 cells assessed as cell growth inhibition; format: functional, cell-based
[6] = system: K562; test: Anticancer activity against human K562 cells; format: functional, cell-based
[7] = system: A549; test: Anticancer activity against human A549 cells; format: functional, cell-based
[8] = system: PC-3; test: Anticancer activity against human PC-3 cells; format: functional, cell-based
[9] = system: CCRF-CEM; test: Anticancer activity against human CEM cells; format: functional, cell-based
[10] = system: MCF7; test: Anticancer activity against human MCF7 cells assessed as reduction in cell proliferation; format: functional, cell-based
[11] = Anticancer activity against human BJ cells assessed as reduction in cell proliferation; format: toxicity, cell-based
[12] = system: HeLa; test: Anticancer activity against human HeLa cells assessed as reduction in cell proliferation; format: functional, cell-based
[13] = system: Panel NCI-60 (60 carcinoma cell lines); test: Growth inhibition of human Panel NCI-60 (60 carcinoma cell lines) cells; format: functional
[14] = system: HepG2; test: Anticancer activity against human HepG2 cells at 50 ug/ml measured after 48 hrs relative to control; format: functional; conditions: dose 50 µg/ml
[15] = system: MDA-MB-231; test: Antiproliferative activity against human MDA-MB-231 cells by MTT assay; format: functional, cell-based
[16] = system: MDA-MB-231; test: Antiproliferative activity against human MDA-MB-231 cells assessed as inhibition of cell viability by MTT assay; format: functional, cell-based
[17] = system: MCF7; test: Antiproliferative activity against human MCF7 cells by MTT assay; format: functional, cell-based
[18] = system: DU-145; test: Antiproliferative activity against human DU-145 cells assessed as inhibition of cell viability by MTT assay; format: functional, cell-based
[19] = system: PC-3; test: Antiproliferative activity against human PC-3 cells assessed as inhibition of cell viability by MTT assay; format: functional, cell-based
[20] = system: MCF7; test: Anticancer activity against human MCF7 cells assessed as inhibition of cell growth; format: functional, cell-based
[21] = system: HCT-116; test: Anticancer activity against human HCT-116 cells; format: functional, cell-based
[22] = system: HepG2; test: Anticancer activity against human HepG2 cells assessed as inhibition of cell growth; format: functional, cell-based
[23] = system: HeLa; test: Anticancer activity against human HeLa cells assessed as inhibition of cell viability; format: functional, cell-based
[24] = Anticancer activity against […] 3T3 cells; format: functional, cell-based; conditions: NIH3T3
[25] = system: WI-38; test: Cytotoxicity against human WI-38 cells assessed as reduction in cell growth; format: functional, cell-based
[26] = system: MCF7; test: Cytotoxicity against human MCF7 cells assessed as reduction in cell growth; format: functional, cell-based
[27] = Cytotoxicity against HEK293T cells incubated for 72 hrs by MTT assay; format: toxicity, cell-based, HEK-293T; conditions: human
[28] = system: A549; test: Cytotoxicity against human A549 cells incubated for 72 hrs by MTT assay; format: functional, cell-based; conditions: A549, 72 h
[29] = system: MCF7; test: Cytotoxicity against human MCF7 cells incubated for 72 hrs by MTT assay; format: functional, cell-based; conditions: MCF7, 72 h
[30] = Cytotoxicity against human VA13 cells incubated for 72 hrs by MTT assay; format: toxicity, cell-based; conditions: VA13 (WI-38 VA13) cells
[31] = system: FaDu; test: Anticancer activity against human FaDu cells; format: functional, cell-based
[32] = system: MCF7; test: Anticancer activity against human MCF7 cells assessed as inhibition of cell proliferation; format: functional, cell-based
[33] = system: KB; test: Anticancer activity against human KB cells assessed as inhibition of cell proliferation; format: functional, cell-based
[34] = system: HBL; test: Cytotoxicity against human HBL cells by MTT assay; format: functional, cell-based
[35] = system: Erythrocyte; test: Cytotoxicity against human Erythrocyte by MTT assay; format: functional, cell-based
[36] = system: MDA-MB-231; test: Cytotoxicity against human MDA-MB-231 cells by MTT assay; format: functional, cell-based
[37] = system: MCF7; test: Cytotoxicity against human MCF7 cells by MTT assay; format: functional, cell-based
[38] = system: A549; test: Cytotoxicity against human A549 cells by MTT assay; format: functional, cell-based
[39] = system: HeLa; test: Cytotoxicity against human HeLa cells assessed as reduction in cell viability; format: functional, cell-based
[40] = system: MCF7; test: Cytotoxicity against human MCF7 cells assessed as reduction in cell viability; format: functional, cell-based
[41] = system: CT26; test: Anticancer activity against mouse CT26 cells at 50 ug/ml measured after 24 hrs relative to control; format: functional; conditions: dose 50 µg/ml

O=C(C[C@@H](CC1CCCC1)C(=O)N1CC2(CC2)C[C@H]1C(=O)Nc1ccc(F)cn1)NO
IC50 [1]: 2 µM | IC50 [2]: 4.88 µM | IC50 [3]: 4.88 µM | IC50 [4]: 4.88 µM | IC50 [5]: 4.88 µM

CCN(CC)C[C@@]1([C@H]2c3ccccc3[C@@H](O)[C@]23C(=O)N(Cc2ccccc2)c2ccccc23)C(=O)N(Cc2ccccc2)c2ccccc21
IC50 [6]: 7.4 µM | IC50 [7]: 18.1 µM | IC50 [8]: 17.7 µM

CC1CO[C@@]2(O[C@H]3CC4C5CC[C@@H]6C[C@@H](O)CC[C@]6(C)C5CC(=O)[C@]4(C)[C@H]3[C@@H]2C)/C(=C/c2ccccc2)C1 (some centres not stated)
IC50 [9]: 23.2 µM | IC50 [10]: 19.9 µM | IC50 [11]: 45.3 µM | IC50 [12]: 35.7 µM

COC1=CC2OC34Oc5cc(OC)ccc5C=C3CCCC4C=C2C=C1 (configuration not stated)
GI50 [13]: < 19 µM

CCCCN1C(=O)C2(c3cc(F)ccc31)[C@@H](C(=O)OCC)[C@H](C(=O)OCC)NC2(CC(=O)OC)C(=O)OC (some centres not stated)
Activity [14]: 55.92%

N#CC1=C(c2ccccc2)Nc2c(c(-c3cccs3)nn2-c2ccccc2)C12C(=O)Nc1ccccc12 (configuration not stated)
IC50 [15]: 6.7 µM

Clc1ccc(C2=NO[C@@]3(CCCCO3)[C@H]2Br)cc1
IC50 [16]: 53.1 µM | IC50 [17]: 51.2 µM | IC50 [18]: 48.1 µM | IC50 [19]: 56.7 µM

O=C1Nc2ccccc2C12CC(c1cn(S(=O)(=O)c3ccc(Cl)cc3)c3ccccc13)=NN2 (configuration not stated)
IC50 [20]: 5.8 µg/mL (≈ 12.2 µM) | IC50 [21]: 20.5 µg/mL (≈ 43 µM) | IC50 [22]: 19.2 µg/mL (≈ 40.3 µM)

O=C(c1ccc(F)cc1)C1C(c2ccc(Cl)cc2Cl)C2CSCN2C12C(=O)Nc1ccccc12 (configuration not stated)
IC50 [23]: 11.2 µM | IC50 [24]: 21.2 µM

CN1N=C(c2ccc(Cl)c(Cl)c2)C2C(CSC23CCCN3CCOCC(=O)NN)C1=O (configuration not stated)
IC50 [25]: 10.4 µM | IC50 [26]: 7.72 µM

CN1C[C@H](c2ccc(F)cc2)[C@]2(NC(=O)NC2=O)C12C(=O)Nc1ccccc12 (some centres not stated)
IC50 at 72 h [27]: 14.3 µM | IC50 [28]: 7.5 µM | IC50 [29]: 18.3 µM | IC50 at 72 h [30]: 20.8 µM

Cc1ccccc1/C=C1\CN(/C=C/c2ccccc2)C[C@]2(C1=O)[C@H](c1ccccc1C)[C@@H](Cc1ccccc1)N[C@]21C(=O)Nc2ccccc21
IC50 [31]: 21 µM

O=C1NC(=O)C2(Cc3ccccc3N3CCSCC32)C(=O)N1 (configuration not stated)
IC50 [32]: 90.2 µM | IC50 [33]: 49.8 µM

O=C1/C(=C/c2ccccc2)CN(/C=C/c2ccccc2)C[C@@]12[C@H](c1ccccc1)[C@@H](Cc1ccccc1)N[C@]21C(=O)Nc2ccccc21
IC50 [31]: 19 µM

Cc1ccc2c(c1)C1(CC(=O)C=NO1)C(=O)N2 (configuration not stated)
IC50 [34]: > 100 µM | IC50 [35]: > 100 µM | IC50 [36]: 0.34 µM | IC50 [37]: > 30 µM | IC50 [38]: 13.2 µM

Cc1ccc2[nH]c3c(c2c1)CC1(C3=O)C(c2ccc(F)cc2)C2CSCN2C12C(=O)Nc1ccccc12 (configuration not stated)
IC50 [39]: 79 µM | IC50 [40]: 19.4 µM

CCOC(=O)[C@@H]1N[C@@](CC(=O)OC)(C(=O)OC)C2(C(=O)N(C(=O)OC(C)(C)C)c3ccccc32)[C@H]1c1ccc([N+](=O)[O-])cc1 (some centres not stated)
Activity [41]: 58.89%
